{"source": "patent US11021529B2", "about": "“Antimicrobial constructs and uses thereof” (priority 2017, dated 2021)", "format_in_all_cases": "cell-based", "key": {"P. aeruginosa strain Z61": {"test_system": "P. aeruginosa strain Z61", "assay": "MIC in hyperpermeable P. aeruginosa strain Z61 (Table 3)", "details": "Pseudomonas aeruginosa"}, "[1]": {"test_system": "P. aeruginosa strain PA14", "assay": "MIC in wild-type P. aeruginosa strain PA14 (Table 3)", "details": "Pseudomonas aeruginosa"}, "[2]": {"test_system": "P. aeruginosa strain PA01", "assay": "MIC in wild-type P. aeruginosa strain PA01 (Table 3)", "details": "Pseudomonas aeruginosa"}, "P. aeruginosa [3]": {"test_system": "P. aeruginosa", "assay": "Checkerboard assays (fractional inhibitory concentration indices) with WLBU2 potentiator", "details": "drug combined with WLBU2 potentiator (W2-grafted dextran)", "from_the_text": "In some embodiments, checkerboard assays can be used to determine if two antimicrobial agents have synergy, additive, or antagonistic effects when dosed together. Checkboard assays determine the interaction and potency of two test articles when used concurrently. Using Lorian methodology, the effect on potency of the combination of antimicrobials in comparison to their individual activities, represented as the Fractional Inhibitory Concentration (FIC) index value. To quantify the interactions between the antimicrobials being tested, the FIC index (the combination of antimicrobials that produced the greatest change from the individual antimicrobial's MIC) value is calculated for each strain and antimicrobial combination: (A/MICA)+(B/MICB)=FICA+FICB=FIC Index, where A and B are the MIC of each antimicrobial in combination (in a single well), and MICA and MICB are the MIC of each antimicrobial individually."}, "[4]": {"test_system": "P. aeruginosa strain PA01", "assay": "Growth (MIC) assay in P. aeruginosa strain PA01", "details": "peptide concentration range 0-5 μM", "experimental": "The minimal inhibitory concentrations (MIC) were measured in P. aeruginosa and cell viability in mammalian cells at a peptide concentration range between 0-5 μM. Toxicity was evaluated in NIH 3T3 mouse fibroblasts and Neuro-2a neuroblastoma. To negatively select against tandem peptides that may cause red blood lysis when administered in animals, the peptides were also screened in a hemolysis assay. In the range of concentrations tested, no membrane-active peptide had inhibitory activity against bacteria when not in tandem with dKK (FIG. 2), supporting the rationale of the tandem peptide architecture. At these concentrations, dKK alone also had no activity against P. aeruginosa (FIG. 2). Since it is advantageous to identify antibacterial agents which have narrow-spectrum activity, antibacterial efficacy against other gram-negative bacterial species (E. coli) and a gram-positive bacterial species (S. aureus; FIG. 1B) was also assessed. The best performing tandem peptide was lactoferrin-dKK (LACT-dKK). Lactoferrin peptide ([…], SEQ ID NO: 1) is from a protein in the transferrin family with known membrane interactions with bacteria. […]\nFor each experiment, P. aeruginosa strain PA01 was started from a frozen glycerol stock and cultured overnight. […] The number of colony forming units (CFU) per mL was determined by titering cultures with known absorbance values. […]"}, "P. aeruginosa [5]": {"test_system": "P. aeruginosa", "assay": "Super-resolution microscopy of membrane association and permeabilization", "details": "fluorescently labeled peptide or potentiator", "source_text": "In order to identify peptides which would improve the penetration of small molecules into bacteria library of 30 peptide-linezolid conjugates was synthesized using antimicrobial peptides curated from literature. Linezolid is a small molecule that is normally unable to kill gram-negative bacteria due to its inability to cross the membrane. The peptide-linezolid library was screened in a growth inhibition assay in P. aeruginosa. […] WLBU2 is part of a family of helical cationic peptides that were designed to specifically kill P. aeruginosa. Other members of this peptide family, WLBU1 and LBU2, were synthesized in tandem with P. aeruginosa targeting peptides (P9b and EKR) and conjugated to linezolid. These peptide-drug conjugates were evaluated for their ability to inhibit P. aeruginosa and cross validated for mammalian cell toxicity.\nTo visualize membrane permeabilization of WLBU2, P. aeruginosa was incubated with Alexa Fluor 488-labeld WLBU2 potentiator for 15 minutes and subsequently washed 2 times with phosphate buffer solution to remove unbound potentiator. Bacteria were then stained with a membrane dye."}}, "note": "Where two headings read alike, the source gives them in different places.", "data": [{"compound": "O=C(O)c1cn(C2CC2)c2cc(N3CCNCC3)c(F)cc2c1=O", "note": "[Ciprofloxacin]", "values": [{"measurement": "MIC", "setting": "P. aeruginosa strain Z61", "value": "< 0.25", "unit": "µg/mL"}, {"measurement": "MIC", "setting": "[1]; P. aeruginosa strain PA14, read-out: MIC", "value": 0.5, "unit": "µg/mL"}, {"measurement": "MIC", "setting": "[2]; P. aeruginosa strain PA01, read-out: MIC", "value": 2, "unit": "µg/mL"}]}, {"compound": "CC(=O)NC[C@H]1CN(c2ccc(N3CCOCC3)c(F)c2)C(=O)O1", "note": "[Linezolid]", "values": [{"measurement": "MIC", "setting": "P. aeruginosa strain Z61", "value": 8, "unit": "µg/mL"}, {"measurement": "MIC", "setting": "[1]; PA14", "value": "> 128", "unit": "µg/mL"}, {"measurement": "MIC", "setting": "[2]; PA01", "value": "> 128", "unit": "µg/mL"}]}, {"compound": "CO[C@@H]1[C@@H](OC(N)=O)[C@@H](O)[C@H](Oc2ccc3c(O)c(NC(=O)c4ccc(O)c(CC=C(C)C)c4)c(=O)oc3c2C)OC1(C)C", "note": "[novobiocin]", "values": [{"measurement": "fractional inhibitory concentration indices (FICIs), interaction with WLBU2 potentiator", "setting": "P. aeruginosa [3]", "value": "synergy"}]}, {"compound": "C=C[C@]1(C)C[C@@H](OC(=O)CS[C@@H]2C[C@H]3CC[C@@H](C2)N3C)[C@]2(C)[C@H](C)CC[C@]3(CCC(=O)[C@H]32)[C@@H](C)[C@@H]1O", "note": "[retapamulin]", "values": [{"measurement": "fractional inhibitory concentration indices (FICIs), interaction with WLBU2 potentiator", "setting": "P. aeruginosa [3]", "value": "synergy"}]}, {"compound": "D(KLAKLAK)2 (KLAKLAKKLAKLAK; D-amino acids; Synthetic - antimicrobial peptide comprised of D-amino acids) [dKK]", "values": [{"measurement": "inhibitory activity against bacteria / P. aeruginosa", "setting": "[4]", "value": "no activity"}]}, {"compound": "RRWVRRVRRWVRRVVRVVRRWVRR (Synthetic WLBU2)", "values": [{"measurement": "localization in P. aeruginosa (super-resolution microscopy)", "setting": "P. aeruginosa [5]", "value": "able to associate with the membrane and localize to the cytosol"}]}]}
